Like-named read-outs stand apart in the source and are kept apart here.
Tests used:
[1] = system: DA autoreceptors; assay: Effect on spontaneous locomotor activity in the rat; assay type: in vivo; conditions: for Motor activity: 0-15 min
Description: 4. Effect on spontaneous locomotor activity in the rat.
Untreated animals exposed to a new environment display an initial high motor activity which then gradually declines over a period of time. Administration of DA-receptor agonists (e.g. apomorphine) in doses where preferential autoreceptor stimulation is likely to occur, causes a depression of the spontaneous motility mentioned above, considered to be due to the DA autoreceptor-mediated impairment of central DA transmission.
Rats (150-300 g) were injected subcutaneously with several doses of compounds 4 and after 5 minutes they were individually placed in motility boxes ("M/P 40 Fc Electronic Motility Meter". Motron Products, Stockholm) and the motor activity (0-30 min.) was quantified. […] Moreover, there seems to be a correlation between the decrease in spontaneous locomotion and the degree of antagonism of the GBL-induced increase in DA synthesis (cf. 3 above) in the limbic areas of rat brain exerted by compound 4, the per cent decrease of motor activity being roughly 0.6 times the per cent reversal of GBL-induced increase in DA-synthesis rate.

[2] = system: DA autoreceptors; assay: Antagonism of γ-butyrolactone (GBL)-induced increase in rat brain DA synthesis rate; assay type: in vivo
Method: 3. Antagonism ofγ-butyrolactone (GBL)-induced increase in rat brain DA synthesis rate.
The administration of GBL in anesthetic doses inhibits nerve impulse flow in central DA neurons, thus resulting in a loss of the impulse-mediated feedback control of tyrosine hydroxylase activity and in a subsequent increase in transmitter synthesis rate (which is determined as described under 2 above). Since the GBL inhibition precludes neuronal feedback actions, antagonistic effects exerted by DA-receptor agonists upon the GBL-induced increase in synthesis are in all probability to be ascribed to their stimulating the DA autoreceptors present in the terminal area of the DA neurons.
Rats (150-300 g), were given compound 4 subcutaneously at several doses (n=7) followed by GBL (750 mg/kg i.p., 5 min. later) and NSD 1015 (100 mg/kg i.p., 10 min. later). By a subsequent procedure according to 2 above the Dopa levels (representing the DA-synthesis rates) were determined. […] The maximal reversal of the GBL-induced increase in DA synthesis rate was approximately 160% in the limbic system and 110% in corpus striatum.

[3] = system: rat brain tyrosine hydroxylation; assay: In-vivo determination of rat brain tyrosine hydroxylation (Dopa formation after NSD 1015, reserpine-pretreated rats); conditions: sc, reserpine-pretreated rats, Dopa level
Method: 2. In-vivo determination of rat brain tyrosine hydroxylation.
The compounds under evaluation were tested biochemically for central DA-receptor (pre- and/or postsynaptic) stimulating activity. The concept of this biochemical screening method is that a DA-receptor agonist will stimulate the receptor and through regulatory feedback systems effect a decline in tyrosine hydroxylase activity and thus a subsequent reduction in the synthesis rate for DA in the presynaptic neuron. Dopa formation, as determined after in-vivo inhibition of the aromatic L-amino acid decarboxylase with NSD 1015 (3-hydroxybenzyl-hydrazine hydrochloride), is taken as an indirect measure of DA synthesis rate.
(§1) Rats (150-300 g) pretreated with reserpine were given the compounds under evaluation. Gross behavioral observations (changes in motility, stereotypies etc.) were made in order to evaluate possible postsynaptic dopamine receptor activity. Subsequent administration of NSD 1015, decapitation, brain dissection (corpora striate and the limbic fore-brain), homogenization, centrifugation, ion-exchange chromatography and spectrofluorimetric measurements (all as described in detail by Wikstrom et al., in J. Med. Chem. 21, 864-867, 1978, and references cited therein), gave the actual Dopa levels. Several doses (n=4-6) were tested in order to obtain dose-response curves for each compound and brain area. The dose of a compound producing a half-maximal decrease in the Dopa level in the rat brain part was then estimated.

[4] = Rat rectal temperature; assay type: in vivo; conditions: 8 mg/kg s.c., 0-30 min
Description: (§2) It was in fact lacking any measurable temperature effects.

[5] = system: postsynaptic DA receptors; assay: Emetic activity in dogs; assay type: in vivo; conditions: at least at 1 mg/kg i.m.
Description: as §2

[6] = system: postsynaptic dopamine receptor; assay: Gross behavioral observations for postsynaptic dopamine receptor activity; assay type: in vivo, rat; conditions: gross behavioural observations, any dose tested
Description: as §1

[7] = system: postsynaptic dopaminergic receptor; assay: Antagonism of apomorphine-induced locomotor stimulation; assay type: in vivo, rat
Method: 3. Evidence for postsynaptic dopminergic receptor antagonist activity of (-)-3-PPP.
The locomotor stimulating action of the dopamine receptor aqonist apomorphine is antagonized by (-)-3-PPP. […] Thus the postsynaptic receptor antagonist activity requires a larger dose than the presynaptic receptor agonist activity, which is evident after doses down to 0.25 mg/kg.
Further, (-)-3-PPP and racemic 3-PPP have been compared regarding antagonism of apomorphine-induced locomotor stimulation. Either form of 3-PPP was injected subcutaneously in a dose of 8 mg/kg 20 min and apomorphine in a dose of 1 mg/kg subcutaneously 5 min before placing the rats in the Motron for 30 min. Shown are the counts per 30 min., means± s.e.m. and number of experiments (n).

[8] = system: dopaminergic receptors (presynaptic and postsynaptic); conditions: racemic mixtures; cited from earlier work

Br.CCCN1CCCC(c2cccc(O)c2)C1 (racemic) [Compound 4, N-n-propyl-3-(3-hydroxyphenyl)piperidine hydrobromide]
Motor activity ([1]; glucose i.p. + compound 4 0.5 mg/kg s.c., n=5): 43 ± 9 acc. counts | Motor activity ([1]; haloperidol 0.02 mg/kg i.p. + compound 4 0.5 mg/kg s.c., n=7): 80 ± 10 acc. counts | reversal of sedative effect by haloperidol ([1]; haloperidol 0.02 mg/kg i.p. 30 min before, compound 4 0.5 mg/kg): at least partly reversed the sedative effect | per cent decrease of motor activity relative to per cent reversal of GBL-induced increase in DA-synthesis rate ([1]; limbic areas, correlation): roughly 0.6 times | locomotor stimulation ([1]; regardless of the dose used): No locomotor stimulation was ever seen | maximal decrease of motor activity from control values ([1]; s.c., 0-30 min, at about 8 mg/kg): 75% | dose at which maximal effect is attained ([1]; s.c., 75% decrease from control values): about 8 mg/kg | dose dependence of motor activity effect ([1]; s.c., several doses): clear dose-dependent decrease of the initial high motor activity | % Reversal of GBL-induced increase in dopamine synthesis rate ([2]; 0.5 mg/kg s.c., corpus striatum): 0% | % Reversal of GBL-induced increase in dopamine synthesis rate ([2]; 0.5 mg/kg s.c., limbic system): 58% | % Reversal of GBL-induced increase in dopamine synthesis rate ([2]; 1.0 mg/kg s.c., corpus striatum): 17% | % Reversal of GBL-induced increase in dopamine synthesis rate ([2]; 1.0 mg/kg s.c., limbic system): 75% | % Reversal of GBL-induced increase in dopamine synthesis rate ([2]; 2.0 mg/kg s.c., corpus striatum): 34% | % Reversal of GBL-induced increase in dopamine synthesis rate ([2]; 2.0 mg/kg s.c., limbic system): 92% | % Reversal of GBL-induced increase in dopamine synthesis rate ([2]; 4.0 mg/kg s.c., corpus striatum): 51% | % Reversal of GBL-induced increase in dopamine synthesis rate ([2]; 4.0 mg/kg s.c., limbic system): 109% | % Reversal of GBL-induced increase in dopamine synthesis rate ([2]; 8.0 mg/kg s.c., corpus striatum): 68% | % Reversal of GBL-induced increase in dopamine synthesis rate ([2]; 8.0 mg/kg s.c., limbic system): 126% | % Reversal of GBL-induced increase in dopamine synthesis rate ([2]; 16.0 mg/kg s.c., corpus striatum): 86% | % Reversal of GBL-induced increase in dopamine synthesis rate ([2]; 16.0 mg/kg s.c., limbic system): 142% | Dopa concentration ([2]; 32 mg/kg s.c. + GBL, limbic system, n=5): 191 ± 16 ng per g tissue | Dopa concentration ([2]; 32 mg/kg s.c. + GBL, striatum, n=5): 1063 ± 74 ng per g tissue | maximal reversal of the GBL-induced increase in DA synthesis rate ([2]; corpus striatum): ~110% | blockade by haloperidol of the antagonism of GBL-induced increase ([2]; haloperidol): the antagonism could be blocked by haloperidol | Dopa concentration ([2]; haloperidol 1 mg/kg i.p. + 32 mg/kg compound 4, limbic system, n=3): 387 ± 32 ng per g tissue | Dopa concentration ([2]; haloperidol 1 mg/kg i.p. + 32 mg/kg compound 4, striatum, n=3): 2193 ± 53 ng per g tissue | maximal reversal of the GBL-induced increase in DA synthesis rate ([2]; limbic system): approximately 160% | dose dependence of antagonism of GBL-induced increase in DA synthesis rate ([2]; s.c., several doses): dose-dependently antagonized the GBL-induced increase in DA synthesis rate | ED50 ([3]; limbic, read-out: ED50 Limbic): 2.7 µmol/kg | ED50 ([3]; striatum, read-out: ED50 Striatum): 2.7 µmol/kg | effect on rectal temperature [4]: failed to lower the rat rectal temperature | emetic activity [5]: devoid of emetic activity in dogs | postsynaptic DA-receptor activation [6]: selectivity for the autoreceptors | antagonism of apomorphine locomotor stimulation ([7]; 8 mg/kg s.c.): did not | counts per 30 min., with apomorphine ([7]; 8 mg/kg s.c. + apomorphine 1 mg/kg s.c., means ± s.e.m., n=5): 443 ± 26 counts per 30 min. | activation of classical postsynaptic dopaminergic receptors [8]: no concomitant activation of the classical postsynaptic dopaminergic receptors could be detected

— US4937346A, “Phenyl-azacykloalkanes” (Carlsson; Per Arvid Emil, priority 1979, dated 1990)
